From patent US8377974B2 (Millennium Pharmaceuticals, Inc., priority 2004, dated 2013)

Target: T1, human plasma protein factor Xa (Homo sapiens, UniProt P00742)
T1 construct: measure proteolytic activity of the enzyme (factor Xa); purchased Haematologic Technologies (Essex Junction, Vt.); host or cells: human plasma
Assay: Factor Xa IC50 determination: cleavage of paranitroanilide substrate S-2765 in 96-well plates
Assay type: biochemical
Settings: fXa 1 nM, S-2765 100 μM, Tris buffered saline pH 7.4, room temperature
In short: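 Initial rates of S-2765 (100 μM final) cleavage, read at 405 nm for 2 min, fitted with a four-parameter equation to give IC50. Enzyme: 1 nM human plasma fXa, 5 min room-temperature preincubation with inhibitor (0.01 nM–10 μM) in 20 mM Tris, 150 mM NaCl, 5 mM CaCl2, 0.1% BSA, 5% DMSO, pH 7.4; duplicates.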

T1 sequence (P00742 235-488 limits assumed): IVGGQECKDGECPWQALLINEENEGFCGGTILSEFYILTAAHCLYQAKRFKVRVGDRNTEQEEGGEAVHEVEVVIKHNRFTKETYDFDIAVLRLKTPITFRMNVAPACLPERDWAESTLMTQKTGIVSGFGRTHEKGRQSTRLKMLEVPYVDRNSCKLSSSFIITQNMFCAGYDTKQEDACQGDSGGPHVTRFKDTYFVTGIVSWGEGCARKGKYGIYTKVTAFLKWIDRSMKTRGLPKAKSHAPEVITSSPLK
T1 sequence (P00742 41-179 partner limits assumed): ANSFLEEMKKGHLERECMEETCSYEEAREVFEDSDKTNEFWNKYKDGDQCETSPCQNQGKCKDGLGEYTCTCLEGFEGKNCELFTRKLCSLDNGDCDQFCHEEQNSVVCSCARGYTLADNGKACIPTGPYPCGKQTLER

Row | IC50 [nM] | SMILES
1 | ≥ 500 | O=C(NCc1cc(-c2cccc(-c3ccc(CN4CCCC4)cc3)c2)no1)c1ccc(Cl)s1 [Example 273, 5-Chloro-thiophene-2-carboxylic acid [3-(4′-pyrrolidin-1-ylmethyl-biphenyl-3-yl)-isoxazol-5-ylmethyl]-amide]
2 | ≥ 500 | O=C(O)c1ccc(C2=NOC(CNC(=O)c3ccc(Cl)s3)C2)cc1 (centres unmarked) [Example 158, 4-(5-{[(5-Chloro-thiophene-2-carbonyl)-amino]-methyl}-4,5-dihydro-isoxazol-3-yl)-benzoic acid]
3 | 100 to 500 | CCOC(=O)C1CCN(C(=N)c2ccc(-c3nc(CNC(=O)c4ccc(Cl)s4)cs3)cc2)CC1 [Example 354, Ethyl 1-((4-(4-((2-chlorothiophene-5-carboxamido)methyl)thiazol-2-yl)phenyl)(imino)methyl)piperidine-4-carboxylate]
4 | ≤ 100 | CSc1cc(C(=N)N(C)C)ccc1-c1cc(CNC(=O)c2ccc(Cl)s2)on1 [Example 140, 5-Chloro-thiophene-2-carboxylic acid {3-[4-(N,N-dimethyl-carbamimidoyl)-2-methylsulfanyl-phenyl]-isoxazol-5-ylmethyl}-amide]
5 | ≤ 100 | CN(C)Cc1ccccc1-c1ccc(-c2cc(CNC(=O)c3ccc(Cl)s3)on2)cc1 [Example 209, 5-Chloro-thiophene-2-carboxylic acid [3-(2′-dimethylaminomethyl-biphenyl-4-yl)-isoxazol-5-ylmethyl]-amide]
6 | ≤ 100 | N=C(c1ccc(-c2cc(CNC(=O)c3ccc(Cl)s3)on2)cc1)N1CCC1 [Example 26, 5-Chloro-thiophene-2-carboxylic acid {3-[4-(azetidin-1-yl-imino-methyl)-phenyl]-isoxazol-5-ylmethyl}-amide]
7 | ≥ 500 | CC(NC(=O)c1ccc(Cl)s1)c1cc(-c2ccc(C(=N)N(C)C)cc2)no1 (stereo in doubt) [Example 53, (R)-5-Chloro-thiophene-2-carboxylic acid (1-{3-[4-(N,N-dimethyl-carbamimidoyl)-phenyl]-isoxazol-5-yl}-ethyl)-amide]
8 | 100 to 500 | CN(C)C(=N)c1ccc(-c2nc(CNC(=O)c3ccc(Cl)s3)cs2)cc1 [Example 350, N-((2-(4-(N,N-Dimethylcarbamimidoyl)phenyl)thiazol-4-yl)methyl)-5-chlorothiophene-2-carboxamide]
9 | ≤ 100 | CN1CCN=C1c1ccc(-c2cncc(CNC(=O)c3ccc(Cl)s3)c2)cc1 [Example 370, 5-Chloro-N-((5-(4-(1-methyl-4,5-dihydro-1H-imidazol-2-yl)phenyl)pyridin-3-yl)methyl)thiophene-2-carboxamide]
10 | 100 to 500 | CN(C)Cc1cccc(-c2ccc(-c3cc(CNC(=O)c4ccc(Cl)s4)on3)cc2)c1 [Example 211, 5-Chloro-thiophene-2-carboxylic acid [3-(3′-dimethylaminomethyl-biphenyl-4-yl)-isoxazol-5-ylmethyl]-amide]
11 | ≤ 100 | CN(C)C(=N)c1ccc(-n2cc(CNC(=O)c3ccc(Cl)s3)cn2)cc1 [Example 325, N-((1-(4-(N,N-Dimethylcarbamimidoyl)phenyl)-1H-pyrazol-4-yl)methyl)-5-chlorothiophene-2-carboxamide]
12 | ≤ 100 | COc1ccc(Oc2cc(C(=N)N(C)C)ccc2-c2cc(CNC(=O)c3ccc(Cl)s3)on2)cc1 [Example 133, 5-Chloro-thiophene-2-carboxylic acid {3-[4-(N,N-dimethyl-carbamimidoyl)-2-(4-methoxy-phenoxy)-phenyl]-isoxazol-5-ylmethyl}-amide]
13 | ≤ 100 | CN(C)C(=N)c1ccc(-c2cc(CNC(=O)c3ccc(Cl)s3)on2)c(N2CCOCC2)c1 [Example 98, 5-Chloro-thiophene-2-carboxylic acid {3-[4-(N,N-dimethyl-carbamimidoyl)-2-morpholin-4-yl-phenyl]-isoxazol-5-ylmethyl}-amide]
14 | ≤ 100 | N=C(c1ccc(-c2cc(CNC(=O)c3ccc(Cl)s3)on2)cc1)N1CCCCC1 [Example 24, 5-Chloro-thiophene-2-carboxylic acid {3-[4-(imino-piperidin-1-yl-methyl)-phenyl]-isoxazol-5-ylmethyl}-amide]

Continued, compound first:

Row | SMILES | IC50 [nM]
15 | N=C(c1ccc(C2=NOC(CNC(=O)c3ccc(Cl)s3)C2)cc1)N1CCCCC1 (centres unmarked) [Example 11, 5-Chloro-thiophene-2-carboxylic acid {3-[4-(imino-piperidin-1-yl-methyl)-phenyl]-4,5-dihydro-isoxazol-5-ylmethyl}-amide] | 100 to 500
16 | CN(c1ccncc1)c1ccc(C2=NOC(CNC(=O)c3ccc(Cl)s3)C2)cc1 (centres unmarked) [Example 227, 5-Chloro-thiophene-2-carboxylic acid {3-[4-(methyl-pyridin-4-yl-amino)-phenyl]-4,5-dihydro-isoxazol-5-ylmethyl}-amide] | ≤ 100
17 | CN(C)CCN(C)Cc1ccccc1-c1ccc(C2=NOC(CNC(=O)c3ccc(Cl)s3)C2)cc1 (centres unmarked) [Example 200, 5-Chloro-thiophene-2-carboxylic acid [3-(2′-{[(2-dimethylamino-ethyl)-methyl-amino]-methyl}-biphenyl-4-yl)-4,5-dihydro-isoxazol-5-ylmethyl]-amide] | ≤ 100
18 | O=C(NCC1CC(c2ccc(N3CCN(C(=O)OCc4ccccc4)CC3=O)cc2)=NO1)c1ccc(Cl)s1 (centres unmarked) [Example 242, 4-[4-(5-{[(5-Chloro-thiophene-2-carbonyl)-amino]-methyl}-4,5-dihydro-isoxazol-3-yl)-phenyl]-3-oxo-piperazine-1-carboxylic acid benzyl ester] | ≤ 100
19 | O=C(NCC1CC(c2ccc(-n3cc(F)ccc3=O)cc2)=NO1)c1ccc(Cl)s1 (centres unmarked) [Example 280, 5-Chloro-N-((3-(4-(5-fluoro-2-oxopyridin-1(2H)-yl)phenyl)-4,5-dihydroisoxazol-5-yl)methyl)thiophene-2-carboxamide] | ≤ 100
20 | O=C(NCC1CC(c2cccc(-c3ccccc3CN3CCCC3)c2)=NO1)c1ccc(Cl)s1 (centres unmarked) [Example 263, 5-Chloro-thiophene-2-carboxylic acid [3-(2′-pyrrolidin-1-ylmethyl-biphenyl-3-yl)-4,5-dihydro-isoxazol-5-ylmethyl]-amide] | ≥ 500
21 | N=C(c1ccccc1)N1CCC(C2=NOC(CNC(=O)c3ccc(Cl)s3)C2)CC1 (centres unmarked) [Example 174, 5-Chloro-thiophene-2-carboxylic acid {3-[1-(imino-phenyl-methyl)-piperidin-4-yl]-4,5-dihydro-isoxazol-5-ylmethyl}-amide] | ≥ 500
22 | CN(C)c1cc(C(=N)N2CCCC2)ccc1C1=NOC(CNC(=O)c2ccc(Cl)s2)C1 (centres unmarked) [Example 76, 5-Chloro-thiophene-2-carboxylic acid {3-[2-dimethylamino-4-(imino-pyrrolidin-1-yl-methyl)-phenyl]-4,5-dihydro-isoxazol-5-ylmethyl}-amide] | 100 to 500
23 | CCOC(=O)C1CCN(C(=N)c2ccc(C3=NOC(C)(CNC(=O)c4ccc(Cl)s4)C3)cc2)CC1 (centres unmarked) [Example 61, 1-{[4-(5-{[(5-Chloro-thiophene-2-carbonyl)-amino]-methyl}-5-methyl-4,5-dihydro-isoxazol-3-yl)-phenyl]-imino-methyl}-piperidine-4-carboxylic acid ethyl ester] | ≤ 100
24 | O=C(NCC1CC(c2ccc(-c3ccccc3C(F)(F)F)cc2)=NO1)c1ccc(Cl)s1 (centres unmarked) [Example 187, 5-Chloro-thiophene-2-carboxylic acid [3-(2′-trifluoromethyl-biphenyl-4-yl)-4,5-dihydro-isoxazol-5-ylmethyl]-amide] | 100 to 500
25 | COc1ccc(Oc2cc(C(=N)N3CCCC3)ccc2-c2cc(CNC(=O)c3ccc(Cl)s3)on2)cc1 [Example 135, 5-Chloro-thiophene-2-carboxylic acid {3-[4-(imino-pyrrolidin-1-yl-methyl)-2-(4-methoxy-phenoxy)-phenyl]-isoxazol-5-ylmethyl}-amide] | ≤ 100
26 | CN1CCN=C1c1ccc(C2=NOC(CNC(=O)c3ccc(Cl)s3)C2)c(N2CCCC2)c1 (centres unmarked) [Example 79, 5-Chloro-thiophene-2-carboxylic acid {3-[4-(1-methyl-4,5-dihydro-1H-imidazol-2-yl)-2-pyrrolidin-1-yl-phenyl]-4,5-dihydro-isoxazol-5-ylmethyl}-amide] | 100 to 500
27 | COc1ccc(Oc2cc(C3=NCCN3C)ccc2-c2cc(CNC(=O)c3ccc(Cl)s3)on2)cc1 [Example 134, 5-Chloro-thiophene-2-carboxylic acid {3-[2-(4-methoxy-phenoxy)-4-(1-methyl-4,5-dihydro-1H-imidazol-2-yl)-phenyl]-isoxazol-5-ylmethyl}-amide] | ≤ 100
28 | COC[C@H]1CCCN1c1ccc(C2=NOC(CNC(=O)c3ccc(Cl)s3)C2)cc1 (some centres unmarked) [Example 236, 5-Chloro-thiophene-2-carboxylic acid {3-[4-(2-methoxymethyl-pyrrolidin-1-yl)-phenyl]-4,5-dihydro-isoxazol-5-ylmethyl}-amide] | ≥ 500
29 | CN1CCN(Cc2ccccc2-c2ccc(C3=NOC(CNC(=O)c4ccc(Cl)s4)C3)cc2)CC1 (centres unmarked) [Example 199, 5-Chloro-thiophene-2-carboxylic acid {3-[2′-(4-methyl-piperazin-1-ylmethyl)-biphenyl-4-yl]-4,5-dihydro-isoxazol-5-ylmethyl}-amide] | ≤ 100
30 | O=C(NCC1CC(c2ccc(Nc3ccnc4ccc(C(F)(F)F)cc34)cc2)=NO1)c1ccc(Cl)s1 (centres unmarked) [Example 395, 5-Chloro-N-((3-(4-(6-(trifluoromethyl)quinolin-4-ylamino)phenyl)-4,5-dihydroisoxazol-5-yl)methyl)thiophene-2-carboxamide] | ≤ 100
31 | N=C(N)N1CCC(c2cc(CNC(=O)c3ccc(Cl)s3)on2)CC1 [Example 179, 5-Chloro-thiophene-2-carboxylic acid [3-(1-carbamimidoyl-piperidin-4-yl)-isoxazol-5-ylmethyl]-amide] | ≥ 500
32 | N=C(c1ccc(-n2cc(CNC(=O)c3ccc(Cl)s3)nn2)cc1)N1CCC1 [Example 317, N-((1-(4-(Azetidin-1-yl(imino)methyl)phenyl)-1H-1,2,3-triazol-4-yl)methyl)-5-chlorothiophene-2-carboxamide] | ≤ 100
